Source: paper PMC7035259, “T-13 and T-26, the novel taxanes with improved oral bioavailability in rats” (Scientific Reports, 2020)

Legend:
[1] = Pharmacokinetics after intravenous and oral administration in rats (LC-MS/MS of plasma); type: in vivo, male Sprague-Dawley (S.D.) rats; conditions: oral 60 mg/kg vs intravenous 5 mg/kg, F = (AUCp.o × Dosei.v)/(AUCi.v × Dosep.o) × 100%; for bioavailability: male, Sprague-Dawley, rat, plasma, read-out: F (absolute oral bioavailability)
Description: For the pharmacokinetic study, male S.D. rats (average weight 300 g) were fasted overnight to prevent coprophagia but allowing free access to water. The rats were randomly divided into four groups (6 animals each). The dosages of taxanes used in the pharmacokinetic study were based on the previously published reports[15]–[17]. For solution, T-13 and T-26 were dissolved in a mixture of Tween 80 and ethanol (50:50, v/v) at 50 mg/mL for intravenous and oral administration, respectively. Group I received the T-13 stock solution diluted with normal saline solution up to 1 mL at a dose of 5 mg/kg for intravenous injection. Group II received T-13 at a dose of 60 mg/kg for oral administration. Group III received the compound T-26 stock solution diluted with normal saline solution up to 1 mL at a dose of 5 mg/kg for intravenous injection. Group IV received T-26 at a dose of 60 mg/kg for oral administration.
Blood samples (~0.20 mL) were collected into heparin coated tubes at 0, 5, 10, 20, 40 min, 1, 2, 4, 6, 8, 12 and 24 h after intravenous injection and 5, 15, 30, 45 min, 1, 2, 4, 6, 8, 12 and 24 h after oral administration. Blood samples were centrifuged at 12,000 rpm for 10 min. The supernatant fractions were transferred into labeled microcentrifuge tubes and stored at −40 °C until LC-MS/MS analysis.
The concentration of T-13 and T-26 were determined in plasma by LC/MS as described above. Calibration curves were used for the conversion of the T-13/Paclitaxel chromatographic area to the concentration. Calibrator and quality control samples were prepared by adding appropriate volumes of standard T-13 or T-26 acetonitrile solution to drug-free plasma. Calibration curves were designed over the range 5–10,000 ng/mL (γ^2 > 0.999). An aliquot (100 μL) of plasma sample was mixed with 100 μL of acetonitrile containing internal standard (PTX, 500 ng/mL), followed by vortex mixing. Then the mixture was added 3 mL of ethyl acetate, followed by vortex gentle agitation for 3 min. […] The supernatant fraction was transferred to auto-sampler vial, and analyzed by HPLC. […]
The pharmacokinetic analysis of concentration-time data obtained after the administration of the compounds T-13 and T-26 were analyzed by a noncompartmental model using Xcalibur® (version 1.3) Software (Thermo Finnigan). The following pharmacokinetic parameters were calculated from the plasma data of Group I and Group III using WinNonlin5.2. Software: total area under the plasma concentration versus time curve, determined by extrapolation from 0 to ∞ after intravenous administration (AUCiv), half-life of the terminal phase (t1/2) and the mean residence time (MRT). Other parameters such as maximum plasma concentration (Cmax) and the time to reach Cmax (Tmax) were also analyzed after oral administration in rats.

[2] = target: T1, P-glycoprotein (P-gp) (Homo sapiens, UniProt P08183); assay: Interaction with P-gp in MDCK-MDR1 and MDCK-WT cell permeability studies; type: in vitro ADME; conditions: MDCK-MDR1 and MDCK-WT cells; for P-gp substrate activity: with and without a P-gp inhibitor (such as verapamil); for P-gp inhibition: with and without a P-gp substrate (such as digoxin)
T1 construct: expressed in transfected cells; host or cells: MDCK-MDR1 (Madin-Darby canine kidney cells carrying MDR1); MDCK-WT as control
Text: In an attempt to increase the solubility of taxoids and develop more safe clinical formulations, we previously synthesized a series of novel taxol analogs by modifying the positions of C7, C10, C14 and C3′, which have improved water solubility and oral bioavailability. […] In order to further evaluate the substrate activity of novel taxol analogs with P-gp and whether they are P-gp inhibitors, T-13 and T-26 were selected based on structural characteristics (with or without 1, 14-carbonate moiety) and cytotoxicity in vitro for evaluation of the interaction with P-gp in Madin-Darby canine kidney (MDCK)-multidrug resistance-1 (MDR1) and MDCK-wild type (WT) cells (a more P-gp specific model)[13],[14] permeability studies, under two sets of conditions: one with and without a P-gp inhibitor (such as verapamil) to look at whether the test compounds were P-gp substrates or not, one with and without a P-gp substrate (such as digoxin) to look at whether the test compounds were P-gp inhibitors or not. […] Therefore, the permeability of the Caco-2 cells was enhanced in vitro.

[3] = tested on: Caco-2 monolayer cells; design: method as in PMID 24332858; conditions: cited from earlier work
[4] = design: method as in PMID 23811429; conditions: paclitaxel, rats; cited from earlier work

T1 sequence (P08183 whole entry): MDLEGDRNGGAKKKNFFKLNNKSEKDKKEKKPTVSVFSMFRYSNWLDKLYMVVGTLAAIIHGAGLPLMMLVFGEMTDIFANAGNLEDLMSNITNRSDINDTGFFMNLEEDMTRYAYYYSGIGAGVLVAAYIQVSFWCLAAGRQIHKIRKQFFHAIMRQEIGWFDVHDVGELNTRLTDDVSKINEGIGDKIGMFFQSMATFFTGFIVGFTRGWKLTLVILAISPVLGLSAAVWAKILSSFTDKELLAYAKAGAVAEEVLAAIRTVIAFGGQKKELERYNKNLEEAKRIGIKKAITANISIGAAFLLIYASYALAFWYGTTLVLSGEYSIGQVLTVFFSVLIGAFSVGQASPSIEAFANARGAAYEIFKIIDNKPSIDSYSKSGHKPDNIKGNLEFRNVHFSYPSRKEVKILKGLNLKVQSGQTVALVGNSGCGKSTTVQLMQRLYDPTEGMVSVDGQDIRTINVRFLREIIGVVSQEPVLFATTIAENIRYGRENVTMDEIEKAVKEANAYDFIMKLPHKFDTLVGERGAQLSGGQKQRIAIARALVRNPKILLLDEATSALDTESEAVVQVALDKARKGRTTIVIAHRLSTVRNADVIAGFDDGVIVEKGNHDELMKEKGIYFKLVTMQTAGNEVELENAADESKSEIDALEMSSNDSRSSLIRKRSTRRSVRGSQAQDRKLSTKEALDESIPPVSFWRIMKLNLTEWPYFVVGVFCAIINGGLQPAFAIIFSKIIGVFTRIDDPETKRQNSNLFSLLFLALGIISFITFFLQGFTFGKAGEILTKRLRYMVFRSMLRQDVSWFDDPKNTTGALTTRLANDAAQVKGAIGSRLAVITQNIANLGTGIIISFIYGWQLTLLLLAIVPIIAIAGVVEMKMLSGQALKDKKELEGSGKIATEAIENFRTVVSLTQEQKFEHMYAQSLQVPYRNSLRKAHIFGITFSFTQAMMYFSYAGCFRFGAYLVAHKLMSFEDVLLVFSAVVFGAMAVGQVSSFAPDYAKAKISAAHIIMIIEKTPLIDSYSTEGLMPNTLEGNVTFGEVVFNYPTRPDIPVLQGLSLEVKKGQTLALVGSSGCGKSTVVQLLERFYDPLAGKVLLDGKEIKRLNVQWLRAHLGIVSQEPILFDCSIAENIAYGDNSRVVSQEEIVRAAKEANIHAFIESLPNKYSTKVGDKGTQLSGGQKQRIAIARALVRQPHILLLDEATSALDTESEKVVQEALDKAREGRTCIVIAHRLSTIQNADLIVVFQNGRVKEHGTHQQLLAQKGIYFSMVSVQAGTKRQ

SMILES	bioavailability [1] [%]	F (absolute oral bioavailability) [1] [%]	P-gp substrate activity [2]	P-gp inhibition [2]	efflux ratio [3]	permeability [3]	oral bioavailability [4] [%]
CO[C@H]1C(=O)[C@]2(C)[C@@H](OC(=O)N(C)C)C[C@H]3OC[C@@]3(OC(C)=O)[C@H]2[C@H](OC(=O)c2ccccc2)[C@]2(O)C[C@H](OC(=O)[C@H](O)[C@@H](NC(=O)OC(C)(C)C)c3ccccc3)C(C)=C1C2(C)C [Compound T-13]	~11	10.71	poor substrates of P-gp	possessed inhibiting effects of P-gp mediated efflux	less than 2.0	highest permeability	
CO[C@H]1C(=O)[C@]2(C)[C@@H](OC(=O)N(C)C)C[C@H]3OC[C@@]3(OC(C)=O)[C@H]2[C@H](OC(=O)c2ccccc2)[C@]2(O)C[C@H](OC(=O)[C@H](O)[C@H](CC(C)C)NC(=O)OC(C)(C)C)C(C)=C1C2(C)C [Compound T-15]					less than 2.0	highest permeability	
CO[C@H]1C[C@H]2OC[C@@]2(OC(C)=O)[C@H]2[C@H](OC(=O)c3ccccc3)[C@]34OC(=O)O[C@H]3[C@H](OC(=O)[C@H](O)[C@@H](NC(=O)OC(C)(C)C)c3ccccc3)C(C)=C([C@@H](OC(=O)N(C)C)C(=O)[C@]12C)C4(C)C [Compound T-26]	~66	65.79	poor substrates of P-gp	possessed inhibiting effects of P-gp mediated efflux	less than 2.0	highest permeability	
CC(=O)O[C@H]1C(=O)[C@@]2(C)[C@H]([C@H](OC(=O)c3ccccc3)[C@]3(O)C[C@H](OC(=O)[C@H](O)[C@@H](NC(=O)c4ccccc4)c4ccccc4)C(C)=C1C3(C)C)[C@]1(OC(C)=O)CO[C@@H]1C[C@@H]2O [paclitaxel, Paclitaxel]							5
